What was measured:
PAE-EGFR cells = test: NOS enzyme activity in EGFR expressing PAE-EGFR cells, NOS kit; type: cell-based, porcine; conditions: for NOS enzyme activity: PAE-EGFR cells
Procedure: Porcine vascular endothelial cells (PAE) were provided by the Institute of Urology, Peking University. The determination of the effect of icariside II on NOS activity in the endothelial cell is conducted using NOS kit (Cayman Chemical company, Ann Arbor, Mich., USA). Vascular endothelial cells (PAE) were treated with different concentrations of icariside II (0, 10^−9, 10^−8, 10^−7, 10^−6, 10^−5 and 10^−4 M) (sildenafil as the control group). 180 μl lysate was added into each culture well. 20 μl supernatant was used for protein concentration assay with BCA protein kit. And, 100 μl supernatant was analyzed for NOS activity with NOS kit (Cayman Chemical company, Ann Arbor, Mich., USA). NOS activity (units/mg)=[(valueNos-measure−valueNOS-blank)÷(38.3×10^6)]×[(2.15+supernatant volume)÷(15×supernatant volume)]÷[protein concentration of each Petri dish]. 1) The EGFR gene was subcloned into pGFP plasmid to construct pGFP-EGFR expression vector. With Liposome transfection reagent (Qigen), pGFP-EGFR was transfected into PAE cells. After the selection with 1800 μg/ml of G418, a single cell clone was selected. Western blot confirms the stable expression of EGFR in the PAE-EGFR cells.

PAE cells = test: eNOS protein expression by Western blot in PAE cells; type: cell-based, porcine; conditions: 12.5 μM, 24 hr; for eNOS protein expression (normalized to β-actin): PAE cells; for eNOS expression levels: unstable strains
Procedure: 2) 5×10^5 of the PAE cells and PAE-EGFR cells were seeded into 35 mm Petri dishes plate in quadruplicate. After 12 hours, PAE and PAE-EGFR cells was treated with 12.5 μM icariside II and sildenafil for 24 hr, respectively. Then the treated PAE and PAE-EGFR cells were lysed with RIPA buffer and subjected to 8% SDS-PAGE electrophoresis. eNOS protein expression was detect by Western blot. After development with super ECL luminescence substrate, the band was analyzed with a Optical density scanner. The results were analyzed by normalizing to β-actin. 3) 5×10^5 of the PAE cells and PAE-EGFR cells were seeded into 35 mm Petri dishes plate in quadruplicate. After 12 hours, PAE and PAE-EGFR cells was treated with 12.5 μM icariside II and sildenafil for 24 hr, respectively, in the presence or absence with 100 μg/ml of EGF. Then the treated PAE and PAE-EGFR cells were lysed with RIPA buffer and subjected to 8% SDS-PAGE electrophoresis. eNOS protein expression was detect by Western blot. After development with super ECL substrate, the band was analyzed with an Optical density scanner. The resulted results were analyzed by normalizing to β-actin.

[1] = tested on: Primary human corpus cavernosum smooth muscle cells (CCSMCs); test: NOS activity in corpus cavernosum smooth muscle cells; type: cell-based
Procedure: Primary human corpus cavernosum smooth muscle cells ([…]) were provided by the Andrology Center of Peking University. The […] of the third passage were cultured in six well plates for two days. Then the cells were treated with icariside II or the sildenafil at a concentration of 0, 10^-9, 10^-8, 10^-7, 10^-6, 10^-5 M; or treated with icariside II (0, 10^-9, 10^-8, 10^-7, 10^-6, 10^-5 M) in the presence or absence of LNNA (4×10^-4 M). The control group was cultured with DMEM only. After 24 hours, the cells were washed three times and 180 μl lysis buffer was added into each well; 60 μl cell suspension was taken for protein concentration assay with BCA protein kit; 100 μl cell suspension was taken for NOS activity test. NOS activity (units/mg protein)=[(valueNOS-measure-valueNOS-blank)÷(38.3×10^6)]×[(2.15+supernatant volume)÷(15×S supernatant volume)]÷[protein concentration in each well].

[2] = tested on: Primary human corpus cavernosum smooth muscle cells (CCSMCs); test: cGMP/cAMP biosynthesis in corpus cavernosum smooth muscle cells; type: cell-based; conditions: 4 hours; for effect on the cAMP concentration: P>0.05
Procedure: Primary human corpus cavernosum smooth muscle cells ([…]) were provided by the Andrology Center of Peking University. The […] of the third passage were cultured in six plates for two days. Then the cells were treated with icariside II or the sildenafil at the concentration of 0, 10^-9, 10^-8, 10^-7, 10^-6, 10^-5, M for 4 hours; or treated with icariside II or the sildenafil at the concentration of 0, 10^-9, 10^-8, 10^-7, 10^-6, 10^-5, 10^-4 M for 4 hours followed by a treatment with 10^-5 M of SNP for 30 min. The control group was cultured with DMEM only. Then to each well was added 0.4 mL 0.1 M HCl and incubated at room temperature for 20 minutes. Then the lysed cells are harvested. The cell suspension was collected in centrifuge tubes and centrifuged at 1000 g for 10 minutes; 60 μl cell suspension was taken for protein concentration assay with the BCA protein kit, and 100 μl cell suspension was taken for cGMP or cAMP concentration test. The concentration of cGMP [pmol/(mg prot·min)]=[cGMP or cAMP concentration×supernatant volume]÷reaction time×protein concentration in each well×supernatant volume].

[3] = tested on: Human corpus cavernosum smooth muscle cells; test: RT-PCR mRNA expression of NOS isoforms and PDE5a in corpus cavernosum smooth muscle cells; type: cell-based; conditions: 12.5 μM; 1 day and 2 days treatment
Procedure: Human corpus cavernosum smooth muscle cells were grown in 60 mm Petri dishes. […] Then the treated CCSMCs were lysed with Trizol and total RNA was extracted and reverse transcribed into cDNA. PCR amplification was carried out using eNOS, iNOS, nNOS and PDE5a specific primers and the specific PCR products represent the mRNA levels.

[4] = tested on: Corpus cavernosum smooth muscle cells; test: Western blot protein expression of NOS isoforms, PDE5, PKG and sGC in corpus cavernosum smooth muscle cells; type: cell-based, human; conditions: 12.5 μM; 1 and 2 days
Procedure: Corpus cavernosum smooth muscle cells were grown in 60 mm Petri dishes. […] Then the treated CCSMCs were lysed with RIPA buffer and subjected to 8% SDS-PAGE electrophosis. Expression of eNOS and other proteins were detected by Western blot. After exposing with super ECL luminescence substrate, the band was analyzed with a Optical density scanner. The resulted results were analyzed by normalizing to β-actin.

Row | Molecule | NOS enzyme activity (PAE-EGFR cells; 10^−5 M) [u/mg] | NOS enzyme activity (PAE-EGFR cells; 10^−6 M) [u/mg] | NOS enzyme activity (PAE-EGFR cells; 10^−7 M) [u/mg] | NOS enzyme activity (PAE-EGFR cells; 10^−8 M) [u/mg] | NOS enzyme activity (PAE-EGFR cells; 10^−9 M) [u/mg] | eNOS protein expression (normalized to β-actin) (PAE cells) | eNOS expression levels (PAE cells) | effect on the cAMP concentration [2] | PDE5a mRNA level [3] | eNOS mRNA level [3] | iNOS mRNA level [3] | nNOS mRNA level [3] | PDE5a protein expression [4] | PKG protein expression [4] | eNOS protein expression [4] | iNOS protein expression [4] | nNOS protein expression [4] | sGC protein expression [4] | also measured
1 | CCCc1nn(C)c2c(=O)[nH]c(-c3cc(S(=O)(=O)N4CCN(C)CC4)ccc3OCC)nc12 [Sildenafil, sildenafil, reference compound] | 8.99 ± 0.87 | 8.4 ± 0.84 | 8.53 ± 0.84 | 8.37 ± 0.82 | 8.48 ± 0.85 | 1.12 ± 0.09 | 1.38 | no significant effect | significantly reduced | not significantly changed | slightly increased after 2 days treatment | not significantly changed | decrease | increase | no effect | no effect | no effect | no effect | effect on NOS activity in CCSMCs ([1]; 10^−9 to 10^−5 M, 24 hours): no significant difference
2 | icariside II | 22.74 ± 2.27 | 23.91 ± 2.36 | 22.79 ± 2.45 | 15.37 ± 1.51 | 11.72 ± 1.21 | 1.08 ± 0.09 | 2.08 | no significant effect | significantly decreased | not changed | slightly increased | significantly increased | significantly decreased | significantly increased | increased at 2 days | slightly increased | significantly increased | significantly increased | NOS activity in PAE-EGFR cells higher than the activity in PAE cells (PAE-EGFR cells; 10^−8 M): 4.66 u/mg; NOS enzyme activity (PAE-EGFR cells; 10^−8 M, listed as icariside II): 15.37±1.49 u/mg; NOS activity (peak) ([1]; 10^−6 M, 24 hours, untreated 0.46 units/mg): 4.19 units/mg; NOS activity ([1]; 10^−8 M, 24 hours, untreated 0.46 units/mg): 1.59 units/mg; peak value of NOS activity in presence of LNNA ([1]; with LNNA 4×10^−4 M): 2.67 unit/mg; EC50 ([2]; in presence of 10^−5 M SNP, read-out: EC50 of cGMP concentration increase): 1.02 µM
